For assay [1], the system named is MOLP-8 human multiple myeloma cell line. The assay is described as follows: Caspase-Glo 3/7 assay in MOLP-8 cells. The conditions noted are these: Caspase-Glo 3/7, 2 hours incubation, averaged over all runs on all batches, read-out: MOLP8 AC50. In kind it is cell-based. The source says:
MCL-1 is a regulator of apoptosis and is highly over-expressed in tumor cells that escape cell death. The assay evaluates the cellular potency of small-molecule compounds targeting regulators of the apoptosis pathway, primarily MCL-1, Bfl-1, Bcl-2, and other proteins of the Bcl-2 family. Protein-protein inhibitors disrupting the interaction of anti-apoptotic regulators with BH3-domain proteins initiate apoptosis.
The Caspase-Glo® 3/7 Assay is a luminescent assay that measures caspase-3 and -7 activities in purified enzyme preparations or cultures of adherent or suspension cells. The assay provides a proluminescent caspase-3/7 substrate, which contains the tetrapeptide sequence DEVD. This substrate is cleaved to release aminoluciferin, a substrate of luciferase used in the production of light. Addition of the single Caspase-Glo® 3/7 Reagent in an “add-mix-measure” format results in cell lysis, followed by caspase cleavage of the substrate and generation of a “glow-type” luminescent signal.
This assay uses the MOLP-8 human multiple myeloma cell line, which is sensitive to MCL-1 inhibition.
Cell cultures were maintained between 0.2 and 2.0×10^6 cells/mL. The cells were harvested by collection in 50 mL conical tubes. The cells were then pelleted at 500 g for 5 mins before removing supernatant and resuspension in fresh pre-warmed culture medium. The cells were counted and diluted as needed.
The assay reagent was prepared by transferring the buffer solution to the substrate vial and mixing. The solution may be stored for up to 1 week at 4° C. with negligible loss of signal.
Compounds were delivered in assay-ready plates (Proxiplate) and stored at −20° C. Assays always include 1 reference compound plate containing reference compounds. The plates were spotted with 40 nL of compounds (0.5% DMSO final in cells; serial dilution; 30 μM highest conc. 1/3 dilution, 10 doses, duplicates). The compounds were used at room temperature and 4 μL of pre-warmed media was added to all wells except column 2 and 23. The negative control was prepared by adding 1% DMSO in media. The positive control was prepared by adding the appropriate positive control compound in final concentration of 60 μM in media. The plate was prepared by adding 4 μL negative control to column 23, 4 μL positive control to column 2 and 4 μL cell suspension to all wells in the plate. The plate with cells was then incubated at 37° C. for 2 hours. The assay signal reagent is the Caspase-Glo solution described above, and 8 μL was added to all wells. The plates were then sealed and measured after 30 minutes.
The activity of a test compound was calculated as percent change in apoptosis induction as follows: […]

Assay [2] deals with Myeloid Cell Leukemia 1(Mcl-1) (Homo sapiens (Human), UniProt Q07820). In words: Terbium labeled Mcl-1 HTRF binding assay with Cy5-labeled BIM BH3 peptide. The conditions noted are these: obtained after recalibration of the equipment; averaged values over several runs. As to the method:
Terbium labeled Myeloid Cell Leukemia 1(Mcl-1) homogeneous time-resolved fluorescence (HTRF) binding assay utilizing the BIM BH3 peptide (H2N-(C/Cy5Mal) WIAQELRRIGDEFN-OH) as the binding partner for Mcl-1.
This assay evaluated inhibition of the BH3 domain: Mcl-1 interaction by measuring the displacement of Cy5-labeled BIM BH3 peptide (H2N—(C/Cy5Mal) WIAQELRRIGDEFN-OH) in the HTRF assay format.
The following assay and stock buffers were prepared for use in the assay: (a) Stock buffer: 10 mM Tris-HCl, pH=7.5+150 mM NaCl, filtered, sterilized, and stored at 4° C.; and (b) 1× assay buffer, where the following ingredients were added fresh to stock buffer: 2 mM dithiothreitol (DTT), 0.0025% Tween-20, 0.1 mg/mL bovine serum albumin (BSA). The 1×Tb-Mcl-1+Cy5 Bim peptide solution was prepared by diluting the protein stock solution using the 1× assay buffer (b) to 25 pM Tb-Mcl-1 and 8 nM Cy5 Bim peptide.
Using the Acoustic ECHO, 100 nL of 100× test compound(s) were dispensed into individual wells of a white 384-well Perkin Elmer Proxiplate, for a final compound concentration of lx and final DMSO concentration of 1%. Inhibitor control and neutral control (NC, 100 nL of 100% DMSO) were stamped into columns 23 and 24 of assay plate. Into each well of the plate was then dispensed 10 μL of the 1×Tb-Mcl-1+Cy5 Bim peptide solution. The plate was centrifuged with a cover plate at 1000 rpm for 1 minute, then incubated for 60 minutes at room temperature with plates covered.
The TR-FRET signal was read on an BMG PHERAStar FSX MicroPlate Reader at room temperature using the HTRF optic module (HTRF: excitation: 337 nm, light source: laser, emission A: 665 nm, emission B: 620 nm, integration start: 60 μs, integration time: […]).
The BMG PHERAStar FSX MicroPlate Reader was used to measure fluorescence intensity at two emission wavelengths—665 nm and 620 nm—and report relative fluorescence units (RFU) for both emissions, as well as a ratio of the emissions (665 nm/620 nm)*10,000. The RFU values were normalized to percent inhibition as follows:
% inhibition=((NC−IC)−(compound−IC))/(NC−IC))*100
where IC (inhibitor control, low signal)=mean signal of 1×Tb-MCl-1+Cy5 Bim peptide+inhibitor control or 100% inhibition of Mcl-1; NC (neutral control, high signal)=mean signal 1×Tb-MCl-1+Cy5 Bim peptide with DMSO only or 0% inhibition An 11-point dose response curve was generated to determine IC50 values (using GenData) based on the following equation:
Y=Bottom+(Top−Bottom)/(1+10^((IogIC50−X)*HillSlope))
where Y=% inhibition in the presence of X inhibitor concentration; Top=100% inhibition derived from the IC (mean signal of Mcl-1+inhibitor control); Bottom=0% inhibition derived from the NC (mean signal of Mcl-1+DMSO); Hillslope=Hill coefficient; and IC50=concentration of compound with 50% inhibition in relation to top/neutral control (NC).
In this assay [L]=8 nM and Kd=10 nM
For orientation: Time-resolved FRET reads energy transfer from a long-lived donor to a nearby acceptor.

Each structure is given as a SMILES string. Read-outs that look alike come from different tables or passages of the source.

Sequence of Myeloid Cell Leukemia 1(Mcl-1) (Q07820 whole entry): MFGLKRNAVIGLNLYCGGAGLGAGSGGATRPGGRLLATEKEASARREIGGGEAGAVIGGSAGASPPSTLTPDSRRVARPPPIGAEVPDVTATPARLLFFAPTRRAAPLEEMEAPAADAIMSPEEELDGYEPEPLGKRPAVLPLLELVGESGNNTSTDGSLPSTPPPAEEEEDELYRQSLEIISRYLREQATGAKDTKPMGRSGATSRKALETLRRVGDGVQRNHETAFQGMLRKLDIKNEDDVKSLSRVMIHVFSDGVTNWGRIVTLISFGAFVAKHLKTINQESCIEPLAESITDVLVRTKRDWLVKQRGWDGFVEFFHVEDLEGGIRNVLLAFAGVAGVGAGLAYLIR

By AC50 is commonly meant the midpoint of the concentration-response curve, whichever way the signal moves. What is called Ki is the dissociation constant of the complex between target and ligand, obtained from inhibition or displacement. Read a low Ki as a stronger hold on the target. On to `COCC1(CO)/C(F)=C/C[C@H](C)[C@@H](C)S(=O)(=O)NC(=O)c2ccc3c(c2)N(C[C@@H]2CCN21)C[C@@]1(CCCc2cc(Cl)ccc21)CO3` (single isomer, unassigned) [Compound 38], for which, in assay [1], the AC50 was determined as 152 nM. This molecule also registered a Ki in assay [2] of 0.15 nM.

In the case of `COCC1(CO)/C(F)=C/C[C@H](C)[C@@H](C)S(=O)(=O)NC(=O)c2ccc3c(c2)N(C[C@@H]2CCN21)C[C@@]1(CCCc2cc(Cl)ccc21)CO3` (single isomer, unassigned) [Compound 39], the AC50 in assay [1] was 630 nM. This molecule had a Ki in assay [2] of 1.84 nM.

Take `COCCOCC1(CO)/C(F)=C/C[C@H](C)[C@@H](C)S(=O)(=O)NC(=O)c2ccc3c(c2)N(C[C@@H]2CCN21)C[C@@]1(CCCc2cc(Cl)ccc21)CO3` (single isomer, unassigned) [Compound 40]: the AC50 in assay [1] was determined as 194 nM. For the same molecule, the affinity in assay [2], expressed as Ki, was 0.16 nM.

`COCCOCC1(CO)/C(F)=C/C[C@H](C)[C@@H](C)S(=O)(=O)NC(=O)c2ccc3c(c2)N(C[C@@H]2CCN21)C[C@@]1(CCCc2cc(Cl)ccc21)CO3` (single isomer, unassigned) [Compound 42]: the AC50 in assay [1] came out at 730 nM. The affinity in assay [2] corresponds to a Ki of 0.9 nM.

On to `C[C@@H]1[C@@H](C)C/C=C(\F)[C@H](CN2CCN3CCOC[C@@H]3C2)N2CC[C@H]2CN2C[C@@]3(CCCc4cc(Cl)ccc43)COc3ccc(cc32)C(=O)NS1(=O)=O` [Compound 28], for which the AC50 in assay [1] (Homo sapiens, MOLP-8, 2 h) was 120 nM. The molecule also returned a Ki in assay [2] of 0.09 nM.

As to `C[C@@H]1[C@@H](C)C/C=C(\F)[C@H](COCCCN2CCOCC2)N2CCC[C@H]2CN2C[C@@]3(CCCc4cc(Cl)ccc43)COc3ccc(cc32)C(=O)NS1(=O)=O` [Compound 34], the AC50 in assay [1] (Homo sapiens, MOLP-8, 2 h) stood at 458 nM. This molecule returned a Ki in assay [2] of 0.21 nM.

Turning to `C[C@@H]1[C@@H](C)C/C=C(\F)C(CO)(CO)N2CCC[C@H]2CN2C[C@@]3(CCCc4cc(Cl)ccc43)COc3ccc(cc32)C(=O)NS1(=O)=O` [Compound 35], the AC50 in assay [1] (Homo sapiens, MOLP-8, 2 h) was determined as 547 nM. The Ki in assay [2] was determined as 0.14 nM.

On to `C[C@@H]1[C@@H](C)C/C=C(\F)C(CO)(CO)N2CC[C@H]2CN2C[C@@]3(CCCc4cc(Cl)ccc43)COc3ccc(cc32)C(=O)NS1(=O)=O` [Compound 36], for which, in assay [1] (Homo sapiens, MOLP-8, 2 h), the AC50 was found to be 2390 nM. Moreover, the Ki in assay [2] was 0.23 nM.

Regarding `COCC1(COC)/C(F)=C/C[C@H](C)[C@@H](C)S(=O)(=O)NC(=O)c2ccc3c(c2)N(C[C@@H]2CCN21)C[C@@]1(CCCc2cc(Cl)ccc21)CO3` [Compound 37], the AC50 in assay [1] (Homo sapiens, MOLP-8, 2 h) is 253 nM. This molecule showed a Ki in assay [2] of 0.45 nM.
